Measured values: patent US6403149B1, “Fluorinated ketones as lubricant deposition solvents for magnetic media applications” (3M Innovative Properties Company, priority 2001, dated 2002)
Like-named read-outs stand apart in the source and are kept apart here.

Assays:
[1] = Solubility/miscibility of perfluoropolyether lubricants (Z-DOL, AM 3001) and phosphazene additive X-1P in fluorinated solvents
Method: The term “miscible” denotes that the lubricant and fluorinated solvent were miscible in all proportions, forming an essentially clear solution. Any number entry denotes solubility in the fluorinated solvent as percent by weight. The term “NT” denotes that the compound was not tested for solubility with the solvent.
Z-DOL was evaluated for solubility in the following fluorinated ketones: […]

[2] = Solubility of impurities (dioctyl phthalate, silicone oils) in fluorinated solvents; type: physicochemical
Method: In Comparative Examples C6-C10, the same “impurities” were evaluated for solubility in C6F14 (a perfluorocarbon), C4F9OCH3 (a hydrofluoroether), CF3CFHCFHCF2CF3 (a hydrofluorocarbon), C3F5HCl2 (a hydrochlorofluorocarbon), and […] (a chlorofluorocarbon), all fluorinated solvents outside the scope of this invention.
The term “NT” denotes that the impurity was not tested in the fluorinated solvent.

[3] = Cardiac sensitization no-effect level; settings: in vivo, inhaled
Source text: (§1) Additionally, the fluorinated ketones have low toxicity.

[4] = Short-term inhalation tests with rats (acute toxicity); type: in vivo
Source text: as §1

[5] = solute FOMBLIN AM 3001 perfluoropolyether lubricant, miscible = miscible in all proportions
[6] = solute Z-DOL perfluoropolyether lubricant, miscible = miscible in all proportions, essentially clear solution
[7] = solute X-1P cyclic phosphazene additive, miscible = miscible in all proportions

Row | Molecule | Solubility of AM 3001 in the solvent [1, 5] | Solubility of Z-DOL in the solvent [1, 6] | Solubility of X-1P in the solvent [1, 7] | other results
1 | O=C(C(F)(F)C(F)(F)C(F)(F)F)C(F)(C(F)(F)F)C(F)(F)F [n-C3F7C(O)CF(CF3)2, 1,1,1,2,4,4,5,5,6,6,6-undecafluoro-2-trifluoromethylhexan-3-one] | miscible | miscible | – | –
2 | O=C(C(F)(C(F)(F)F)C(F)(F)F)C(F)(C(F)(F)F)C(F)(F)F [(CF3)2CFC(O)CF(CF3)2, 1,1,1,2,4,5,5,5,6,6,6-octafluoro-2,4-bis(trifluoromethyl)pentan-3-one] | miscible | miscible | 0.03 percent by weight | –
3 | COC(F)(F)C(F)(F)C(F)(F)C(F)(F)F [C4F9OCH3, perfluorobutyl methyl ether] | miscible | miscible | miscible | –
4 | O=C(C(F)(F)C(F)(F)F)C(F)(C(F)(F)F)C(F)(F)F [CF3CF2C(O)CF(CF3)2, 1,1,1,2,4,4,5,5,5-nonafluoro-2-trifluoromethyl-pentan-3-one] | – | – | – | Solubility of DOP in the solvent [2]: 0.024; Solubility of Silicone 100 cst in the solvent [2]: <0.01; Solubility of Silicone 1000 cst in the solvent [2]: <0.01; Solubility of Silicone 10000 cst in the solvent [2]: <0.01; Solubility of AM 3001 in the solvent [1]: miscible; Solubility of X-1P in the solvent [1]: 0.03 percent by weight; Solubility of Z-DOL in the solvent [1]: miscible; "no-effect" level for cardiac sensitization [3]: > 150,000 ppm; Acute toxicity [4]: low acute toxicity
5 | dichloropentafluoropropane [C3F5HCl2] | miscible | miscible | miscible | –
6 | FC(F)(F)C(F)(F)C(F)(F)C(F)(F)C(F)(F)C(F)(F)F [C6F14, perfluorohexane] | miscible | miscible | – | –
7 | FC(C(F)C(F)(F)C(F)(F)F)C(F)(F)F (stereo not shown) [CF3CFHCFHCF2CF3, 1,1,1,2,3,4,4,5,5,5-decafluoropentane] | miscible | miscible | miscible | –
